ChEMBL document CHEMBL5150014, “Discovery and Development of Dolastatin 10-Derived Antibody Drug Conjugate Anticancer Drugs” (J Nat Prod, 2022)
Starred links: 1 amine or outer side, 2 acyl side, 3 side chain; linkers in the order of their positions; H or OH if unused. Non-standard residues stand in square brackets, D forms with d. Residues, ends and D or L forms follow the SMILES beside them. *: point of attachment. Dolaproine(4S-N3) = CO[C@H]([C@@H](C)C(=O)[*:2])[C@@H]1C[C@H](N=[N+]=[N-])CN1[*:1]; X2 = CO[C@H]([C@@H](C)C(=O)[*:2])[C@@H]1C[C@@H]2C[C@@H]2N1[*:1]; NMeVal(N-(CH2)3COOH) = CC(C)[C@@H](C(=O)*)N(C)CCCC(=O)O; Dolaproine = CO[C@@H]([C@@H]1CCCN1)[C@@H](C)C(=O)O; Abu(3S-N3) = C[C@H](N=[N+]=[N-])[C@H](N)C(=O)O; Dil = CC[C@H](C)[C@H](NC)[C@@H](CC(=O)O)OC; Phe(2-Cl) = N[C@@H](Cc1ccccc1Cl)C(=O)O; Phe(2-F) = N[C@@H](Cc1ccccc1F)C(=O)O; NMe2Val = CC(C)[C@@H](C(=O)*)N(C)C; Oxazinan2yl(1,2) = C1CCN(*)OC1; X4 = C1=C[C@H]2CC[C@@H]1N(*)O2; NMeV = CN[C@H](C(=O)O)C(C)C; NHOH = ON*

Key:
[1] = system: BT-474; experiment: Anticancer activity against human BT-474 assessed as cell growth inhibition incubated for 4 days by WST-8 assay; type: functional; conditions: BT-474, 96 h, time 4 day
[2] = system: L1210; experiment: Cytotoxicity against mouse L1210 cells assessed as cell growth inhibition measured after 24 hrs; type: functional, cell-based; conditions: L1210, 24 h
[3] = system: MOLM-13; experiment: Cytotoxicity against human MOLM-13 cells assessed as cell growth inhibition; type: functional, cell-based
[4] = system: H3396; experiment: Cytotoxicity against human H3396 cells assessed as cell growth inhibition; type: functional, cell-based
[5] = system: SK-BR-3; experiment: Cytotoxicity against human SK-BR-3 cells assessed as cell growth inhibition incubated for 72 hrs by CellTiter-Glo assay; type: functional
[6] = system: KARPAS-299; experiment: Cytotoxicity against human KARPAS-299 cells assessed as reduction in cell viability incubated for 5 days by Presto blue dye based assay; type: functional; conditions: KARPAS-299, 120 h
[7] = system: Panel NCI-60 (60 carcinoma cell lines); experiment: Cytotoxicity against human Panel NCI-60 (60 carcinoma cell lines) assessed as cell growth inhibition; type: functional, cell-based
[8] = system: HT-29; experiment: Cytotoxicity against human HT-29 cells assessed as cell growth inhibition; type: functional, cell-based

In the case of CC[C@H](C)[C@@H]([C@@H](CC(=O)N1CC(=O)C[C@H]1[C@H](OC)[C@@H](C)C(=O)NCCc1ccccc1)OC)N(C)C(=O)[C@@H](NC(=O)[C@H](C(C)C)N(C)C)C(C)C, the GI50 [1] is reported as 5.23 nM.

CC[C@H](C)[C@@H]([C@@H](CC(=O)N1CCC[C@H]1[C@@H](OC)[C@@H](C)C(=O)N[C@@H](Cc1ccccc1)c1nccs1)OC)N(C)C(=O)[C@@H](NC(=O)[C@H](C(C)C)N(C)C)C(C)C showed an IC50 [2] greater than 10000 nM.

In the case of CC[C@H](C)[C@@H]([C@@H](CC(=O)N1C[C@@H](N=[N+]=[N-])C[C@H]1[C@H](OC)[C@@H](C)C(=O)N[C@@H](Cc1ccccc1)C(=O)OC)OC)N(C)C(=O)[C@@H](NC(=O)[C@@H](NC)C(C)C)C(C)C (H-[NMeV]V[Dil][Dolaproine(4S-N3)]F-OMe), the GI50 [3] is reported as 0.224 nM.

CC[C@H](C)[C@@H]([C@@H](CC(=O)N1CCC[C@H]1[C@H](OC)[C@@H](C)C(=O)N[C@@H](Cc1ccccc1)C(=O)OC)OC)N(C)C(=O)[C@@H](NC(=O)[C@@H](NC)C(C)C)C(C)C (H-[NMeV]V[Dil][Dolaproine]F-OMe) was tested, and the IC50 [4] was less than 0.001 nM.

CC[C@H](C)[C@@H]([C@@H](CC(=O)N1CCC[C@H]1[C@H](OC)[C@@H](C)C(=O)N[C@@H](Cc1ccccc1F)C(=O)O)OC)N(C)C(=O)[C@@H](NC(=O)[C@@H](NC)C(C)C)C(C)C (H-[NMeV]V[Dil][Dolaproine][Phe(2-F)]-OH) showed a GI50 [5] of 81.6 nM.

Work on CC[C@H](C)[C@@H]([C@@H](CC(=O)N1[C@H]2C[C@H]2C[C@H]1[C@H](OC)[C@@H](C)C(=O)N[C@@H](Cc1ccccc1Cl)C(=O)O)OC)N(C)C(=O)[C@@H](NC(=O)[C@@H](NC)C(C)C)C(C)C (H-[NMeV]V[Dil][X2][Phe(2-Cl)]-OH) yielded a GI50 [5] of 1.06 nM.

Work on CC[C@H](C)[C@@H]([C@@H](CC(=O)N1C[C@@H](N=[N+]=[N-])C[C@H]1[C@H](OC)[C@@H](C)C(=O)N[C@@H](Cc1ccccc1)C(=O)OC)OC)N(C)C(=O)[C@@H](NC(=O)[C@@H](NC)C(C)C)[C@H](C)N=[N+]=[N-] (H-[NMeV][Abu(3S-N3)][Dil][Dolaproine(4S-N3)]F-OMe) yielded a GI50 [3] of 0.279 nM.

CC[C@H](C)[C@@H]([C@@H](CC(=O)N1CCC[C@H]1[C@H](OC)[C@@H](C)C(=O)N[C@@H](Cc1ccccc1)C(N)=O)OC)N(C)C(=O)[C@@H](NC(=O)[C@@H](NC)C(C)C)[C@H](C)N=[N+]=[N-] (H-[NMeV][Abu(3S-N3)][Dil][Dolaproine]F-NH2) gave an IC50 [6] of 0.6 nM.

For CC[C@H](C)[C@@H]([C@@H](CC(=O)N1[C@H]2C[C@H]2C[C@H]1[C@H](OC)[C@@H](C)C(=O)N[C@@H](Cc1ccccc1)C(=O)O)OC)N(C)C(=O)[C@@H](NC(=O)[C@@H](NC)C(C)C)C(C)C (HELM PEPTIDE1{[meV].V.[CC[C@H](C)[C@@H]([C@@H](CC(=O)[*:2])OC)N(C)[*:1]].[CO[C@H]([C@@H](C)C(=O)[*:2])[C@@H]1C[C@@H]2C[C@@H]2N1[*:1]].F}$$$$V2.0), the GI50 [5] was 1.11 nM.

CC[C@H](C)[C@@H]([C@@H](CC(=O)N1C[C@@H](F)C[C@H]1[C@H](OC)[C@@H](C)C(=O)N[C@@H](Cc1ccccc1)C(=O)O)OC)N(C)C(=O)[C@@H](NC(=O)[C@@H](NC)C(C)C)C(C)C (HELM PEPTIDE1{[meV].V.[CC[C@H](C)[C@@H]([C@@H](CC(=O)[*:2])OC)N(C)[*:1]].[CO[C@H]([C@@H](C)C(=O)[*:2])[C@@H]1C[C@H](F)CN1[*:1]].F}$$$$V2.0) showed a GI50 [5] of 81.7 nM.

CC[C@H](C)[C@@H]([C@@H](CC(=O)N1CCC[C@H]1[C@H](OC)[C@@H](C)C(=O)N[C@@H](Cc1ccccc1)C(=O)O)OC)N(C)C(=O)[C@@H](NC(=O)[C@H](C(C)C)N(C)C)C(C)C (NMe2Val-V[Dil][Dolaproine]F-OH) showed an IC50 [7] of 105 nM.

CC[C@H](C)[C@@H]([C@@H](CC(=O)N1CCC[C@H]1[C@H](OC)[C@@H](C)C(=O)N[C@@H](Cc1ccccc1)C(=O)OC)OC)N(C)C(=O)[C@@H](NC(=O)[C@H](C(C)C)N(C)C)C(C)C (NMe2Val-V[Dil][Dolaproine]F-OMe) was tested, and the GI50 [7] was 0.2 nM.

Compound CC[C@H](C)[C@@H]([C@@H](CC(=O)N1CCC[C@H]1[C@H](OC)[C@@H](C)C(=O)N[C@@H](Cc1ccccc1)C(=O)N1O[C@H]2C=C[C@@H]1CC2)OC)N(C)C(=O)[C@@H](NC(=O)[C@H](C(C)C)N(C)C)C(C)C (NMe2Val-V[Dil][Dolaproine]F-X4) has an IC50 [8] of 0.5 nM.

For CC[C@H](C)[C@@H]([C@@H](CC(=O)N1CCC[C@H]1[C@H](OC)[C@@H](C)C(=O)N[C@@H](CC(C)C)C(=O)NO)OC)N(C)C(=O)[C@@H](NC(=O)[C@H](C(C)C)N(C)C)C(C)C (NMe2Val-V[Dil][Dolaproine]L-{NHOH}), the GI50 [5] was 3 nM.

With CC[C@H](C)[C@@H]([C@@H](CC(=O)N1CCC[C@H]1[C@H](OC)[C@@H](C)C(=O)N[C@@H](Cc1c[nH]c2ccccc12)C(=O)N1CCCCO1)OC)N(C)C(=O)[C@@H](NC(=O)[C@H](C(C)C)N(C)C)C(C)C (NMe2Val-V[Dil][Dolaproine]W-{Oxazinan2yl(1,2)}) the IC50 [8] was 0.5 nM.

CC[C@H](C)[C@@H]([C@@H](CC(=O)N1CCC[C@H]1[C@H](OC)[C@@H](C)C(=O)N[C@@H](Cc1c[nH]c2ccccc12)C(N)=O)OC)N(C)C(=O)[C@@H](NC(=O)[C@H](C(C)C)N(C)CCCC(=O)O)C(C)C ({NMeVal(N-(CH2)3COOH)}-V[Dil][Dolaproine]W-NH2) was tested, and the IC50 [8] was 16 nM.

Work on CC[C@H](C)[C@@H]([C@@H](CC(=O)N1CCC[C@H]1[C@H](OC)[C@@H](C)C(=O)NCCc1ccccc1)OC)N(C)C(=O)[C@@H](NC(=O)[C@H](C(C)C)N(C)C)C(C)C [SOBLIDOTIN] yielded a GI50 [7] of 0.49 nM.
